According to ChEMBL document CHEMBL1201862, “PubChem BioAssay data set” (2004):
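Each compound was tested at five concentrations against cells in 96-well plates for 48 hours. At the GI50, growth is halved.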 The source made the active and inactive calls. Cut-off read from the data, not from the text of the source: active = GI50 up to about 1.1 µM and inactive = higher.

Columns and labels:
Assay in all cases: NCI anticancer screen, dose series, 48 h
[1] = system: LOX IMVI
[2] = system: CCRF-CEM
[3] = system: HCC 2998
[4] = system: SF-268
[5] = system: OVCAR-5
[6] = system: A498
[7] = system: RPMI-8226
[8] = system: NCI-H522
[9] = system: SNB-19
[10] = system: EKVX
[11] = system: U-251
[12] = system: OVCAR-8
[13] = system: COLO 205
[14] = system: MOLT-4
[15] = system: SN12C
[16] = system: OVCAR-3

Measured: GI50

O=C(CCN1CCCCC1CO)Nc1ccc2c(c1)C(=O)c1ccc(NC(=O)CCN3CCCCC3CO)cc1C2=O (stereo not drawn)
inactive: [1] 6.93 µM | [2] 3.61 µM | [3] 9.35 µM | [4] 10 µM | [5] 18.7 µM | [6] 2.25 µM | [7] 13.2 µM | [8] 8.18 µM | [9] 11 µM | [10] 19.1 µM | [11] 8.13 µM | [12] 6.73 µM | [13] 7.71 µM | [14] 8.39 µM | [15] 6.68 µM

O=C1c2ccccc2C(=O)N1/N=C\c1ccc(Br)cc1
inactive: [1] > 10 µM | [2] > 10 µM | [3] > 10 µM | [4] > 10 µM | [5] > 10 µM | [6] > 10 µM | [7] > 10 µM | [16] > 10 µM | [8] > 100 µM | [9] > 10 µM | [10] > 10 µM | [11] > 100 µM | [12] > 10 µM | [13] > 100 µM | [14] > 10 µM | [15] > 10 µM

CCCOC(=O)C1CCC(=O)N1C(=O)C(Cl)Cl (stereo not drawn)
inactive: [1] > 100 µM | [2] > 100 µM | [3] > 100 µM | [4] > 100 µM | [5] > 100 µM | [6] > 100 µM | [7] > 100 µM | [16] > 100 µM | [8] > 100 µM | [9] > 100 µM | [10] > 100 µM | [11] > 100 µM | [12] > 100 µM | [13] > 100 µM | [14] > 100 µM | [15] > 100 µM

NC(=O)NC12CC3CC(CC(F)(C3)C1)C2
inactive: [1] > 100 µM | [2] > 100 µM | [3] > 100 µM | [5] > 100 µM | [6] > 100 µM | [7] > 100 µM | [16] > 100 µM | [8] > 100 µM | [9] > 100 µM | [10] > 100 µM | [11] > 100 µM | [12] > 100 µM | [13] > 100 µM | [14] > 100 µM

Cc1ccc(N2C(=O)CS/C2=C(\C#N)c2nc3ccccc3[nH]2)cc1
inactive: [1] > 100 µM | [2] > 100 µM | [3] > 100 µM | [4] > 100 µM | [5] > 100 µM | [6] > 100 µM | [7] > 100 µM | [16] > 100 µM | [8] > 100 µM | [9] > 100 µM | [10] > 100 µM | [11] > 100 µM | [12] > 100 µM | [13] > 100 µM | [14] > 100 µM | [15] > 100 µM

Cc1ccccc1/C=N/C12CC3CC(CC(C3)C1)C2
inactive: [1] > 100 µM | [2] > 100 µM | [3] > 100 µM | [4] > 100 µM | [5] > 100 µM | [6] > 100 µM | [7] > 100 µM | [16] > 100 µM | [8] > 100 µM | [9] > 100 µM | [10] > 100 µM | [11] > 100 µM | [12] > 100 µM | [13] > 100 µM | [14] > 100 µM | [15] > 100 µM

N#CN=C(NCc1ccccc1)NCc1ccccc1
inactive: [1] > 100 µM | [2] > 100 µM | [3] > 100 µM | [4] 18.2 µM | [5] > 100 µM | [6] > 100 µM | [7] > 100 µM | [16] > 100 µM | [8] > 100 µM | [9] > 100 µM | [10] > 100 µM | [11] > 48.2 µM | [12] > 100 µM | [13] > 42.9 µM | [14] > 100 µM | [15] > 100 µM

O=C1C[C@@H]2[C@@H](CCC23CC3)N1
inactive: [1] > 100 µM | [2] > 100 µM | [3] > 100 µM | [4] > 100 µM | [5] > 100 µM | [6] > 100 µM | [7] > 100 µM | [16] > 100 µM | [8] > 100 µM | [9] > 100 µM | [10] > 100 µM | [11] > 100 µM | [12] > 100 µM | [13] > 100 µM | [14] > 10 µM | [15] > 100 µM

Cc1ccccc1SC(/C=C/NNC1=NN=C(c2ccccc2)C(c2ccccc2)N1)c1ccccc1 (stereo not drawn)
inactive: [1] 33.8 µM | [2] 27.3 µM | [3] 40.6 µM | [4] 24.9 µM | [5] > 100 µM | [6] 23.7 µM | [7] 27.5 µM | [16] 13.7 µM | [8] 33.8 µM | [9] 50 µM | [10] 27.2 µM | [11] 24.9 µM | [12] 13.7 µM | [13] 36.4 µM | [14] 41.7 µM | [15] 61.2 µM

O=C(NCC(O)CNC(=O)C(F)(F)F)C(F)(F)F
inactive: [1] > 100 µM | [2] > 100 µM | [3] > 100 µM | [4] > 100 µM | [5] > 100 µM | [6] > 100 µM | [7] > 100 µM | [16] > 100 µM | [8] > 100 µM | [9] > 100 µM | [10] > 100 µM | [11] > 100 µM | [12] > 100 µM | [13] > 100 µM | [14] > 100 µM | [15] > 100 µM

[O-][S+]1c2ccccc2N=C(c2cccs2)CC1c1ccccc1O (stereo not drawn)
inactive: [1] > 100 µM | [2] > 100 µM | [3] 96.6 µM | [4] > 100 µM | [5] > 100 µM | [6] 25.4 µM | [7] > 100 µM | [16] > 100 µM | [8] 65.2 µM | [9] > 100 µM | [10] > 100 µM | [12] > 100 µM | [13] > 100 µM | [14] > 100 µM | [15] > 100 µM

CC(=O)OCC1(C)C(OC(C)=O)CCC2(C)C(CC(OC(C)=O)C3=CCOC3=O)C(O)(CO)CCC12 (stereo not drawn)
inactive: [1] > 100 µM | [2] 53.1 µM | [3] > 100 µM | [4] > 100 µM | [5] > 100 µM | [6] > 100 µM | [7] > 100 µM | [16] > 100 µM | [8] > 100 µM | [9] > 100 µM | [10] > 100 µM | [11] > 100 µM | [12] > 100 µM | [13] > 100 µM | [15] > 100 µM

COC(=O)[C@@]12C(=O)CCC(=O)C1C1C(=CC2C)O[C@@H]2OC3(CCCCC3)O[C@H]12 (stereo partly drawn)
inactive: [1] > 72.1 µM | [2] 29.9 µM | [3] > 100 µM | [4] > 91.2 µM | [5] > 100 µM | [6] > 100 µM | [7] 19 µM | [16] 34.8 µM | [8] 18.6 µM | [9] > 89.5 µM | [10] 99.8 µM | [11] > 100 µM | [12] 42.2 µM | [13] > 68.1 µM | [14] 27.4 µM | [15] > 100 µM
